Test results from patent US12673975B2, “Cyclic peptide, cell scaffold material, cell separating material, and medium” (FUJIFILM Corporation, priority 2019, dated 2026).
Read-outs that look alike come from different tables or passages of the source. Starred links: 1 amine or outer side, 2 acyl side, 3 side chain; linkers in the order of their positions; H or OH if unused. Positions of bridges follow the written chain, without caps; N, C: chain ends. Non-standard residues stand in square brackets, D forms with d. Residues, ends and D or L forms follow the SMILES beside them. hCys = N[C@@H](CCS)C(=O)O; Dab = NCC[C@H](N)C(=O)O; Dap = NC[C@H](N)C(=O)O; X1 = O=C(C[*:2])[*:1]; X2 = O=C(C[*:1])[*:2]

Columns and labels:
[1] = Evaluation of molecule stability (alkali treatment, residual rate by LC/MS); type: physicochemical; conditions: for Stability (molecule stability, residual rate of the cyclic peptide rank): alkali treatment, residual rate by LC/MS; for Performance evaluation: Stability (residual rate of cyclic peptide after alkali treatment): 500 μM peptide aqueous solution plus equivalent of 1 M sodium hydroxide, 15° C., 3 hours, LC/MS peak area
Experimental: The molecule stability of the cyclic peptide was evaluated by analyzing the alkali-treated cyclic peptide aqueous solution by liquid chromatography mass spectroscopy (LC/MS).
The alkali treatment was carried out by the following method. A 500 μM cyclic peptide aqueous solution was prepared, an equivalent of 1 M sodium hydroxide aqueous solution was added to this aqueous solution, and the resultant mixture was incubated at 15° C. for 3 hours to obtain an alkali-treated cyclic peptide aqueous solution. The cyclic peptide residual rate was calculated by setting the total area of all peaks of the cyclic peptide before alkali treatment in LC/MS to 100% and determining the proportion of the total area of all peaks in LC/MS of the alkali-treated cyclic peptide aqueous solution, and the molecule stability was evaluated according to the following evaluation standards. It is preferable that the evaluation result satisfies the evaluation standard A, B, or C.
The conditions of the LC/MS used for the evaluation of molecule stability were set as follows. • LC apparatus: Prominence series (pump, column oven, autosampler, detector) (manufactured by Shimadzu Corporation) • MS detector: LC/MS2010EV (manufactured by Shimadzu Corporation) • Column: Cadenza CD-C18, inner diameter 2.0 mm×length 250 mm, particle size: 3 μm (manufactured by Imtakt Corporation) • Eluent A: a solution (pH 3) containing 10 mM ammonium formate as a solute, where the solvent is 100% water. • Eluent B: a solution (pH 3) containing 10 mM ammonium formate as a solute, where the solvent is acetonitrile/water=90/10. • Flow rate: 0.2 mL/min • Injection volume: 4 μL • Gradient: 0% to 30%: Eluent B (0 to 30 minutes), 100%: Eluent B (30 to 40 minutes), 0%: Eluent B (40 to 60 minutes) • Column temperature: 45° C. • Ionization method: electrospray ionization (ESI) positive, ESI negative

human integrin αvβ5 = human integrin αvβ5 (Homo sapiens, UniProt P06756+P18084); assay: Evaluation of integrin binding property (surface plasmon resonance, Biacore 3000, immobilized cyclic peptide)
human integrin αvβ5, sequence (P06756 31-1048): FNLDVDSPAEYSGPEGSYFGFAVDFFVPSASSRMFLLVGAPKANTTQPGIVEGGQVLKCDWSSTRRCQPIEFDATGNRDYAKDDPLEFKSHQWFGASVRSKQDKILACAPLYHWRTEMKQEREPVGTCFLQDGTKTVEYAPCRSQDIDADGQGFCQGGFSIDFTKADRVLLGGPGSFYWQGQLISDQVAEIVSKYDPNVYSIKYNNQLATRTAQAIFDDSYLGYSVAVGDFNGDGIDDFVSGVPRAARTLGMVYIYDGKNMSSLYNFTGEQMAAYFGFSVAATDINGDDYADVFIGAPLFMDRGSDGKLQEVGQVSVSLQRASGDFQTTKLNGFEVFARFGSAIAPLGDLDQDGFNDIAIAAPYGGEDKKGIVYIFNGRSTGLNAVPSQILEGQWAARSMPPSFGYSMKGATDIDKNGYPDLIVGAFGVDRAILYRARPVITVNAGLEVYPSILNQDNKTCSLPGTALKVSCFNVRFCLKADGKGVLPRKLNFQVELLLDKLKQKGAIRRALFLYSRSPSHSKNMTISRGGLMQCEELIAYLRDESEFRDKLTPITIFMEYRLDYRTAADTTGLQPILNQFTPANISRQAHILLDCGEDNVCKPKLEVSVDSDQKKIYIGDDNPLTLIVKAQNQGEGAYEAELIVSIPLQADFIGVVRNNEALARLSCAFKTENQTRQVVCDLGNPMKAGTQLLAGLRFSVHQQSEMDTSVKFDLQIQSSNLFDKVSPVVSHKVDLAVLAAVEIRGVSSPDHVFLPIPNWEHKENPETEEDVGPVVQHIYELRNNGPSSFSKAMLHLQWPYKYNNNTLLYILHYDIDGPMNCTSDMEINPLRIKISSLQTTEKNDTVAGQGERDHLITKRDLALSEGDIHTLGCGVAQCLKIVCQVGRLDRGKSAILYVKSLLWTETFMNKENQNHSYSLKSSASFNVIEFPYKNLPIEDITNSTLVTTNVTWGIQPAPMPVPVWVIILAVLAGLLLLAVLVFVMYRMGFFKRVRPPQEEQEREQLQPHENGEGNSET
human integrin αvβ5, sequence (P18084 24-799): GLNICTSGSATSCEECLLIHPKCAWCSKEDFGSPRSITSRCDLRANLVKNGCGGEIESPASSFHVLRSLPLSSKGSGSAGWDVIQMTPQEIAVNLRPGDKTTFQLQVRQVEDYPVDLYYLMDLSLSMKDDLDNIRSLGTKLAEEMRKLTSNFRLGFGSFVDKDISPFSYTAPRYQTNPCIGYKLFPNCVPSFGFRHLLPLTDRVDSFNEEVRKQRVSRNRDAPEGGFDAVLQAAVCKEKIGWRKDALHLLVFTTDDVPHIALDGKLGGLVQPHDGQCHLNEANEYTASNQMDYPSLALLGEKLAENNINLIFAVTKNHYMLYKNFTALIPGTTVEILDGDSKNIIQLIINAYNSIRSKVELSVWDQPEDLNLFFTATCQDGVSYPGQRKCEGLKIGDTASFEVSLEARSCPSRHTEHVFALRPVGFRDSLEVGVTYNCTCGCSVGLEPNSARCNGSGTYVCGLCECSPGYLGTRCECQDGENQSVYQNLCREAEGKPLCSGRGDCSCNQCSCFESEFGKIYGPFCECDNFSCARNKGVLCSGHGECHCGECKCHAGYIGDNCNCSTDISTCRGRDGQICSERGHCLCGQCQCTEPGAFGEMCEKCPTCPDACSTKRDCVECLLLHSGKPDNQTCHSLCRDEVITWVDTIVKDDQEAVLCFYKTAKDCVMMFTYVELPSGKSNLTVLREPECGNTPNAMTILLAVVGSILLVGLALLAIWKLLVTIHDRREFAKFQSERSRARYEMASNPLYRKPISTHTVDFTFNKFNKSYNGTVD
Experimental: A commercially available CMS (a carboxymethyl dextran introduction type, manufactured by GE Healthcare) sensor chip was set in Biacore 3000, which is a surface plasmon resonance apparatus manufactured by GE Healthcare, the sensor was stabilized at a flow rate of 10 μL/min of a HEPES (4-(2-hydroxyethyl)-1-piperazineethanesulfonic acid) buffer solution (20 mM HEPES-HCl, 150 mM NaCl, pH 7.4) for surface plasmon resonance (SPR), and 70 μL of a mixed aqueous solution of 0.2 M 1-(3-dimethylaminopropyl)-3-ethylcarbodiimide (EDC) and 0.04 M N-hydroxysuccinimide (NHS) was added thereto. Here, the concentration unit M represents mol/L, and the same applies hereinafter. Then, 20 μL of the sample solution of each of the above cyclic peptides diluted to 0.2 g/L with the HEPES buffer solution was supplied to the sensor chip, blocking treatment was subsequently carried out with an ethanolamine solution, and washing was carried out with a sodium hydroxide aqueous solution, whereby immobilization was carried out. However, only for the cyclic peptides 125, 126, and 127, in which the number of lysine residues having an amino group as the immobilizing functional group was zero, the amount of the sample solution to be supplied to the sensor chip was set to 500 μL instead of 20 μL. Further, 70 μL of the mixed aqueous solution of 0.2 M EDC and 0.04 M NHS was added to another flow channel of the same sensor chip without immobilizing the sample, and then blocking treatment and washing treatment were carried out. Hereinafter, the obtained immobilization-treated sensor chip is referred to as an “immobilization-treated sensor chip A”.
After adding human integrin αvβ5 for 10 minutes at 25° C., which was diluted to 30 nM using a HEPES buffer solution to which magnesium chloride was added to 5 mM, in each flow channel of the immobilization-treated sensor chip A prepared in (1) above, the same HEPES buffer solution (containing 5 mM magnesium chloride) was allowed to flow as a running buffer for 30 minutes, and measurement was carried out with Biacore 3000. Then, a regeneration treatment of removing human integrin αvβ5 was carried out by allowing a 0.5 M EDTA aqueous solution to flow through each flow channel for 10 minutes. Further, the above-described measurement process consisting of adding integrin for 10 minutes, allowing a running buffer to flow for 30 minutes, carrying out measurement with Biacore 3000, and carrying out regeneration treatment with 0.5 M EDTA aqueous solution was carried out in the same manner for 100 nM human integrin αvβ5, 300 nM human integrin αvβ5, and 1,000 nM human integrin αvβ5. Dissociation constant between the cyclic peptide and human integrin αvβ5 was calculated from the difference between the value measured by Biacore 3000 in the flow channel immobilized with the cyclic peptide and the value measured by Biacore 3000 in the flow channel unimmobilized with the cyclic peptide, in a case where each concentration of human integrin αvβ5 was allowed to flow, and the integrin binding property was evaluated according to the following evaluation standards. It is preferable that the evaluation result satisfies the evaluation standard A, B, or C.

[2] = surface plasmon resonance, immobilized cyclic peptide, human integrin αvβ5, read-out: Binding activity (integrin binding property, dissociation constant rank)
[3] = SPR, 25° C., HEPES buffer with 5 mM magnesium chloride, integrin 30-1,000 nM, read-out: Performance evaluation: Binding activity (dissociation constant between the cyclic peptide and human integrin αvβ5)

Row | Kd (human integrin αvβ5; [2]) [nM] | Kd (human integrin αvβ5; [3]) [nM] | Compound | Stability (molecule stability, residual rate of the cyclic peptide rank) [1] | Performance evaluation: Stability (residual rate of cyclic peptide after alkali treatment) [1] | Kd (human integrin αvβ5) [nM]
1 | < 50 | – | C[C@H](NC(=O)[C@@H]1CCNC(=O)CSCC[C@H](NC(=O)[C@H](C)NC(=O)[C@H](CCCCN)NC(=O)[C@H](CCCCN)NC(=O)[C@@H](N)CCCCN)C(=O)N[C@@H]([C@@H](C)O)C(=O)N2CCC[C@H]2C(=O)N[C@@H](CCCNC(=N)N)C(=O)NCC(=O)N[C@@H](CC(=O)O)C(=O)N[C@@H]([C@@H](C)O)C(=O)N[C@@H](Cc2ccccc2)C(=O)N[C@@H](C)C(=O)N1)C(=O)O [Cyclic peptide 160, KKKA-(Hcy)-TPRGDTFA(Dab(acetyl))A] (H-KKKA[hCys]TPRGDTFA[Dab]A-OH; linker 5-14 via X2) | A (The residual rate of the cyclic peptide is 70% or more.) | – | –
2 | – | – | CC(C)[C@@H]1NC(=O)[C@@H](NC(=O)[C@H](CCCCN)NC(=O)[C@H](CCCCN)NC(=O)[C@@H](N)CCCCN)CCSCC(=O)NCC[C@@H](C(=O)O)NC(=O)[C@H](Cc2ccccc2)NC(=O)[C@H](CC(N)=O)NC(=O)[C@H](CC(=O)O)NC(=O)CNC(=O)[C@H](CCCNC(=N)N)NC(=O)[C@@H]2CCCN2C1=O [Cyclic peptide 14, KKK-(Hcy)-VPRGDNF(Dab(acetyl))] (H-KKK[hCys]VPRGDNF[Dab]-OH; linker 4-12 via X2) | – | A (The residual rate of the cyclic peptide is 70% or more.) | < 50
3 | < 50 | – | CC(C)[C@@H]1NC(=O)[C@@H](NC(=O)[C@H](C)N)CCSCC(=O)NCC[C@@H](C(=O)N[C@@H](C)C(=O)O)NC(=O)[C@H](C)NC(=O)[C@H](Cc2ccccc2)NC(=O)[C@H]([C@@H](C)O)NC(=O)[C@H](CC(=O)O)NC(=O)CNC(=O)[C@H](CCCNC(=N)N)NC(=O)[C@@H]2CCCN2C1=O [Cyclic peptide 125, A-(Hcy)-VPRGDTFA(Dab(acetyl))A] (H-A[hCys]VPRGDTFA[Dab]A-OH; linker 2-11 via X2) | A (The residual rate of the cyclic peptide is 70% or more.) | – | –
4 | < 50 | – | CC(C)[C@@H]1NC(=O)[C@@H](NC(=O)[C@H](CCCCN)NC(=O)[C@H](CCCCN)NC(=O)[C@@H](N)CCCCN)CCSCC(=O)NCC[C@@H](C(=O)O)NC(=O)[C@H](C)NC(=O)[C@H](Cc2ccccc2)NC(=O)[C@H]([C@@H](C)O)NC(=O)[C@H](CC(=O)O)NC(=O)CNC(=O)[C@H](CCCNC(=N)N)NC(=O)[C@H]([C@@H](C)O)NC1=O [Cyclic peptide 150, KKK-(Hcy)-VTRGDTFA(Dab(acetyl))] (H-KKK[hCys]VTRGDTFA[Dab]-OH; linker 4-13 via X2) | A (The residual rate of the cyclic peptide is 70% or more.) | – | –
5 | – | 50 to 100 | C[C@H](NC(=O)[C@H](CCCCN)NC(=O)[C@H](CCCCN)NC(=O)[C@@H](N)CCCCN)C(=O)N[C@H]1CNC(=O)CSCC[C@@H](C(=O)O)NC(=O)[C@H](CCCNC(=N)N)NC(=O)[C@H](Cc2ccc(O)cc2)NC(=O)[C@H](CC(N)=O)NC(=O)[C@H](CC(=O)O)NC(=O)CNC(=O)[C@H](CCCNC(=N)N)NC(=O)[C@@H]2CCCN2C(=O)[C@H](CCC(=O)O)NC1=O [Cyclic peptide 47, KKKA(Dap(acetyl))EPRGDNYR-(Hcy)] (H-KKKA[Dap]EPRGDNYR[hCys]-OH; linker 5-14 via X1) | – | B (The residual rate of the cyclic peptide is 50% or more and less than 70%.) | –
6 | – | 50 to 100 | N=C(N)NCCC[C@@H]1NC(=O)[C@H](Cc2ccc(O)cc2)NC(=O)[C@H](CC(N)=O)NC(=O)[C@H](CC(=O)O)NC(=O)CNC(=O)[C@H](CCCNC(=N)N)NC(=O)[C@@H]2CCCN2C(=O)[C@H](CCC(=O)O)NC(=O)[C@@H](NC(=O)[C@H](CCCCN)NC(=O)[C@H](CCCCN)NC(=O)[C@@H](N)CCCCN)CNC(=O)CSCC[C@@H](C(N)=O)NC1=O [Cyclic peptide 52, KKK(Dap(acetyl))EPRGDNYR-(Hcy)] (H-KKK[Dap]EPRGDNYR[hCys]-NH2; linker 4-13 via X1) | – | B (The residual rate of the cyclic peptide is 50% or more and less than 70%.) | –
7 | – | 50 to 100 | C[C@H](NC(=O)[C@@H]1CCNC(=O)CSCC[C@H](NC(=O)[C@H](C)NC(=O)[C@H](CCCCN)NC(=O)[C@H](CCCCN)NC(=O)[C@@H](N)CCCCN)C(=O)N[C@@H](CCC(=O)O)C(=O)N2CCC[C@H]2C(=O)N[C@@H](CCCNC(=N)N)C(=O)NCC(=O)N[C@@H](CC(=O)O)C(=O)N[C@@H](CC(N)=O)C(=O)N[C@@H](Cc2ccc(O)cc2)C(=O)N[C@@H](CCCNC(=N)N)C(=O)N1)C(=O)O [Cyclic peptide 41, KKKA-(Hcy)-EPRGDNYR(Dab(acetyl))A] (H-KKKA[hCys]EPRGDNYR[Dab]A-OH; linker 5-14 via X2) | – | A (The residual rate of the cyclic peptide is 70% or more.) | –
8 | – | < 50 | CC[C@H](C)[C@@H]1NC(=O)[C@@H](NC(=O)CNC(=O)[C@H](CCCCN)NC(=O)[C@H](CCCCN)NC(=O)[C@@H](N)CCCCN)CCSCC(=O)NCC[C@@H](C(=O)N[C@@H](C)C(=O)O)NC(=O)[C@H](Cc2ccccc2)NC(=O)[C@H]([C@@H](C)O)NC(=O)[C@H](CC(=O)O)NC(=O)CNC(=O)[C@H](CCCNC(=N)N)NC(=O)[C@@H]2CCCN2C1=O [Cyclic peptide 58, KKKG-(Hcy)-IPRGDTF(Dab(acetyl))A] (H-KKKG[hCys]IPRGDTF[Dab]A-OH; linker 5-13 via X2) | – | A (The residual rate of the cyclic peptide is 70% or more.) | –
9 | – | 50 to 100 | CC[C@H](C)[C@@H]1NC(=O)[C@@H](NC(=O)[C@H](C)NC(=O)[C@H](CCCCN)NC(=O)[C@H](CCCCN)NC(=O)[C@@H](N)CCCCN)CCSCC(=O)NCC[C@@H](C(=O)N[C@@H](C)C(=O)O)NC(=O)[C@H](CCCNC(=N)N)NC(=O)[C@@H]2CCCN2C(=O)[C@H]([C@@H](C)O)NC(=O)[C@H](CC(=O)O)NC(=O)CNC(=O)[C@H](CCCNC(=N)N)NC(=O)[C@@H]2CCCN2C1=O [Cyclic peptide 80, KKKA-(Hcy)-IPRGDTPR(Dab(acetyl))A] (H-KKKA[hCys]IPRGDTPR[Dab]A-OH; linker 5-14 via X2) | – | A (The residual rate of the cyclic peptide is 70% or more.) | –
10 | – | 100 to 200 | C[C@H](NC(=O)[C@@H]1CCNC(=O)CSCC[C@H](NC(=O)[C@H](CCCCN)NC(=O)[C@H](CCCCN)NC(=O)[C@@H](N)CCCCN)C(=O)N2CCC[C@H]2C(=O)N[C@@H](CCCNC(=N)N)C(=O)NCC(=O)N[C@@H](CC(=O)O)C(=O)N[C@@H](CC(N)=O)C(=O)N[C@@H](Cc2ccccc2)C(=O)N[C@@H](CCCNC(=N)N)C(=O)N1)C(=O)O [Cyclic peptide 9, KKK-(Hcy)-PRGDNFR(Dab(acetyl))A] (H-KKK[hCys]PRGDNFR[Dab]A-OH; linker 4-12 via X2) | – | A (The residual rate of the cyclic peptide is 70% or more.) | –
